These results are taken from US20090312373A1, “METHODS FOR THE TREATMENT OF CANCER USING PIPERLONGUMINE AND PIPERLONGUMINE ANALOGS” (The General Hospital Corporation, priority 2008, published 2009).

For one data set, the system named is p53. Nature of the data set: Western blot of p53 and p53 target expression in human cancer cells. Type of data set: cell-based. The text has this:
Thus, piperlongumine is a p53 activator as well as an activator for proapoptotic targets.

The subject of data set [1] is EJ bladder carcinoma cells. Nature of the data set: Persistent effects after removal of the compound in EJ cells. In kind it is cell-based, human. Here is the method: EJ bladder carcinoma cells were treated with SP2007 (P10: 10 μM and P20: 20 μM), taxol (T10: 10 nM and T20: 20 nM) or DMSO vehicle control for either 20 hrs or 3 hrs. For the 20 hrs experiment, the percentages of remaining living cells ware measured on the end of the 20 hrs treatment time point. […] For the 3 hrs experiment, cells were washed 3 times with PBS after treatment with the and incubated for another 6 hrs in growing medium without SP2007, taxol or DMSO.

For data set [2], the system named is CDIP promoter containing p53 binding site. Nature of the data set: CDIP promoter/p53 responsive site luciferase reporter screen. In kind it is cell-based, human. The text has this: We screened a small molecule library of biologically active compounds using a Luciferase reporter gene construct fused with CDIP (Cell Death Involved p53 target) promoter/p53 responsive site as a read-out assay. p53 transcriptional activators were identified from screening the diversity set of the biologically active library using U2OS human cancer cells expressing the p53-responsive reporter. Briefly, a reporter construct was created that included the CDIP promoter operatively linked to the luc2 luciferase reporter gene. We stably expressed a human p53 reporter, luciferase2/Puro+CDIP promoter, which carries the firefly luciferase gene under the control of p53-responsive elements of CDIP promoter, in U2OS cells. Stable cell lines were produced that expressed the reporter construct, and the cells were plated in 384 well plates at ˜10,000 cells per well. Test compounds were added to the plated cells at two replicates per compound, and the cells were incubated with the compounds for 24 hours. The data were analyzed using Spotfire. The initial screen identified several compounds that activated p53-responsive reporter expression during 48 hours.
On the technique in general: A reporter such as luciferase makes a cellular process visible.

Another data set is described as follows: Toxicity limit in mice. In kind it is in vivo, mouse. Here is the method: To avoid toxicity, piperlongumine should be used at less than 2.5 mg/kg in mice. The skilled person will know how to formulate the compounds of the invention in accordance with the solubility by selection of appropriate carriers, solubilizers, etc.
The subject of data set [3] is patient-derived colon cancer tumor samples. Nature of the data set: Histoculture Drug Response Assay (HDRA), colon. In kind it is cell-based, human. The text has this: (§1) Piperlongumine (SP2007) was compared to a variety of known anti-cancer agents in a Histoculture Drug Response Assay (HDRA). HDRA is an assay that provides a reliable approach to determine the profile of in vivo chemo-sensitivity in cancer patients. The assay allows for a three-dimensional culture, the testing of patient tumor sensitivity, the evaluation of treatment option for individual patients with solid tumor types and a high correlation to clinical drug sensitivity (Flowers J L et al., Cancer Chemother. Pharmacol. 2003 September 52 (3): 253-261). The assays were performed by Anti-cancer Inc., (San Diego, Calif.). An average of twenty samples was tested for each tumor type.

Data set [4] deals with patient-derived breast cancer tumor samples. Nature of the data set: Histoculture Drug Response Assay (HDRA), breast. In kind it is cell-based, human.
Description: as §1

The test system of another data set is Twist and N-cadherin. The data set is described as follows: Histological examination of Twist and N-cadherin in MMTV-PyVT mammary tumors. In kind it is in vivo, mouse. Particulars: i.p. total 2.4 mg/kg daily for two weeks. On the procedure:
A scheme for piperlongumine (SP2007)-mediated repression of Twist expression and its downstream targets that are involved in tumor invasion/metastasis is presented in FIG. 39A. […] U2OS and EJ cells were treated with SP2007 at two concentrations (10 μM and 20 μM) as well as with DMSO as a solvent control. After 20 hours, cell lysates were extracted and western blotting was performed against Twist, N-cadherin and p120 catenin (Zymed and Sigma Aldrich). […] Female MMTV-PyVT mice at 8-9 weeks age were chosen for the studies. When tumor sizes grew to ˜5-6 mm in diameter, SP2007 or DMSO was administered intraperitoneally (I.P., total 2.4 mg/kg of SP2007) daily for two weeks. After two weeks treatment, mice were sacrificed and mammary tumors excised and processed for histological examination.

The subject of the next data set is Twist. The data set is described as follows: Twist expression in U2OS and EJ cells. Type of data set: cell-based, human. Particulars: 10 μM, 6 and 12 hours. On the procedure: (§2) U2OS cells and EJ cells were exposed to piperlongumine (10 μM) and aliquots of the cells were taken at 6 and 12 hours and lysed to determine the level of Twist expression. […] HCT116 cells (p53-wt cells) were exposed to piperlongumine and aliquots of the cells were taken at 6 and 12 hours and lysed to determine the level of CDIP expression. […] U2OS cells (p53-wt cells) and EJ cells (non-functional p53) were exposed to various concentrations of piperlongumine (piper) and aliquots of the cells were lysed to determine the level of survival protein expression.

The next data set deals with CDIP. Nature of the data set: CDIP expression in HCT116 cells. In kind it is cell-based, human. Particulars: 5 μM and 10 μM. On the procedure: as §2
The subject of data set [5] is EJ Human Bladder Carcinoma Cells. Nature of the data set: Angiogenesis in EJ bladder carcinoma tumor bearing nude mice. Type of data set: in vivo, mouse. Particulars: 1.5 mg/kg i.p. every two days for 2.5 weeks. Here is the method:
EJ Human Bladder Carcinoma Cells (10^6 Cells) were Subcutaneously Transplanted into the back of the skin of immunodeficient nude mice (total 16 mice). After 2 weeks (tumor sizes of approximately 8-10 mm), piperlongumine (SP2007; 1.5 mg/kg) or vehicle (10% DMSO) was injected into tumor bearing mice by i.p. every two days for 2.5 weeks. The effect of piperlongumine was evaluated by opening the tumor site.

A short description of data set [6]: Long-term piperlongumine treatment toxicity in mice. Particulars: 2.4 mg/kg injected multiple times for 4 weeks. Type of data set: in vivo, mouse. On the procedure: Piperlongumine (2.4 mg/kg) was injected into mice (8 mice per group) multiple times for 4 weeks. […] After 4 weeks the mice were killed and examined for changes in gross histology in target organs.

In data set [7] the test system is patient-derived osteocarcoma samples. The data set is described as follows: Histoculture Drug Response Assay (HDRA), osteosarcoma. Type of data set: cell-based, human.
Description: as §1

Data set [8] has as its system diploid fibroblasts, keratinocytes and breast epithelial cells. The data set is described as follows: Cell death in non-transformed control cells. In kind it is cell-based.
Data set [9] concerns EJ bladder carcinoma and U2OS osteosarcoma cell lines. Nature of the data set: DNA damage in EJ bladder carcinoma and U2OS osteosarcoma cell lines. Type of data set: cell-based, human. The text has this:
The conditions and time of exposure are indicated in the legend of the figure.

Structures are written as SMILES.

Consider `COc1cc(/C=C/C(=O)N2CCC=CC2=O)cc(OC)c1OC` [piperlongumine, N-(3,4,5,-trimethoxycinnamoyl)-Δ^3-piperidine-2-one], for which, in the data set with p53 (human cancer cells), the Puma expression entry was “significantly induced”. Besides, the “p53 expression (Western blot)” value with p53 (relatively low concentrations, U2OS and HCT116 human cancer cells) is listed as “significantly induced”. The “killing of cancer cells after removal of the compound” value in data set [1] (3 hrs treatment, washed, another 6 hrs in medium without compound) is reported as “still able to kill cancer cells”. Also, the “percentage of remaining living cells” value in [1] (20 hrs treatment, SP2007 10 and 20 μM, taxol 10 and 20 nM) is on record as “No difference was observed”. In addition, the “luciferase activity of the CDIP promoter containing p53 binding site” value in [2] (10 μM, U2OS cells) is given as “significantly increased”. Also, the “composite Z value in the screen” value in [2] (among natural compound candidates, U2OS reporter cells) was “highest composite Z value”. The “dose to avoid toxicity” value in “Toxicity limit in mice” is given as “less than 2.5 mg/kg”. Also, the “growth of patient-derived tumor samples” value in [3], in [4] and in data set [7] was “inhibits growth” in each case. Moreover, the “N-cadherin expression in mammary tumors” value in the data set with Twist and N-cadherin was “inhibits N-cadherin expression”. In the data set on Twist and N-cadherin, the “Twist expression in mammary tumors” value is reported as “inhibits Twist expression”. The Twist expression result in the data set on Twist is on record as “inhibits the expression of Twist”. In addition, in the data set on CDIP, the CDIP expression entry is recorded as “induces the expression of CDIP”. Also, the “blood-vessel formation at the tumor sites” value in data set [5] is recorded as “did not show considerable blood-vessel formation”. In addition, the “expression of angiogenic marker VEGF (immunohistochemistry)” value in data set [5] (compared to vehicle) is “significantly reduced”. Further, in [6], the mortality result is “None of the mice died”. Besides, in data set [6] (hematoxilin and eosin staining), the “gross histology in kidney, liver and lung” value is on record as “no change in gross histology”. Also, the “cell death/apoptosis in normal cells” value in [8] is recorded as “not in normal cells”. In addition, in data set [9], the “DNA damage (phosphorylated gamma-H2AX levels)” value is “results in the induction of DNA damage”.
